We go through 14 compounds from US12448389B2, “BRM targeting compounds and associated methods of use” (Prelude Therapeutics Incorporated, priority 2020, dated 2025).

In one test the target is T1, SMARCA2-HiBiT (Homo sapiens, UniProt P51531).
T1 construct: SMARCA2-HiBiT knock-in Hela monoclonal cell (CS302366); host or cells: HeLa monoclonal knock-in line (CRISPR HiBiT knock-in at the endogenous locus, heterozygous)
Put plainly: SMARCA2 HiBiT degradation assay in HeLa cells. The note with it: 18 hours incubation; for DC50: read-out: HeLa_HiBit-SM2 DC50; for Dmax: HeLa, read-out: HeLa-HiBit-SM2 Dmax (%). In kind it is cell-based. Summed up:
(§1)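 HeLa monoclonal lines with heterozygous HiBiT knock-in were seeded at 2500 cells/well in EMEM with 10% FBS and treated with compound for 18 h at 37 °C. Remaining tagged protein was measured by Nano-Glo HiBiT lytic luminescence after 30–60 min at RT, and values came from curve fitting.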

A further test concerns the target T2, SMARCA4-HiBiT (Homo sapiens, UniProt P51532).
T2 construct: SMARCA4-HiBiT knock-in Hela monoclonal cell (CS3023226); host or cells: HeLa monoclonal knock-in line (CRISPR HiBiT knock-in at the endogenous locus, heterozygous)
Kind of test: SMARCA4 HiBiT degradation assay in HeLa cells. In kind it is cell-based. The note with it: 18 hours incubation; for DC50: read-out: HeLa-HiBit-SM4 DC50; for Dmax: HeLa, read-out: HeLa-HiBit-SM4 Dmax (%). Summed up:
as §1
(The HiBiT peptide binds its large partner to form an active luciferase.)

The structures appear in SMILES notation. Bounds are passed on as bounds.

T2 sequence (P51532 whole entry): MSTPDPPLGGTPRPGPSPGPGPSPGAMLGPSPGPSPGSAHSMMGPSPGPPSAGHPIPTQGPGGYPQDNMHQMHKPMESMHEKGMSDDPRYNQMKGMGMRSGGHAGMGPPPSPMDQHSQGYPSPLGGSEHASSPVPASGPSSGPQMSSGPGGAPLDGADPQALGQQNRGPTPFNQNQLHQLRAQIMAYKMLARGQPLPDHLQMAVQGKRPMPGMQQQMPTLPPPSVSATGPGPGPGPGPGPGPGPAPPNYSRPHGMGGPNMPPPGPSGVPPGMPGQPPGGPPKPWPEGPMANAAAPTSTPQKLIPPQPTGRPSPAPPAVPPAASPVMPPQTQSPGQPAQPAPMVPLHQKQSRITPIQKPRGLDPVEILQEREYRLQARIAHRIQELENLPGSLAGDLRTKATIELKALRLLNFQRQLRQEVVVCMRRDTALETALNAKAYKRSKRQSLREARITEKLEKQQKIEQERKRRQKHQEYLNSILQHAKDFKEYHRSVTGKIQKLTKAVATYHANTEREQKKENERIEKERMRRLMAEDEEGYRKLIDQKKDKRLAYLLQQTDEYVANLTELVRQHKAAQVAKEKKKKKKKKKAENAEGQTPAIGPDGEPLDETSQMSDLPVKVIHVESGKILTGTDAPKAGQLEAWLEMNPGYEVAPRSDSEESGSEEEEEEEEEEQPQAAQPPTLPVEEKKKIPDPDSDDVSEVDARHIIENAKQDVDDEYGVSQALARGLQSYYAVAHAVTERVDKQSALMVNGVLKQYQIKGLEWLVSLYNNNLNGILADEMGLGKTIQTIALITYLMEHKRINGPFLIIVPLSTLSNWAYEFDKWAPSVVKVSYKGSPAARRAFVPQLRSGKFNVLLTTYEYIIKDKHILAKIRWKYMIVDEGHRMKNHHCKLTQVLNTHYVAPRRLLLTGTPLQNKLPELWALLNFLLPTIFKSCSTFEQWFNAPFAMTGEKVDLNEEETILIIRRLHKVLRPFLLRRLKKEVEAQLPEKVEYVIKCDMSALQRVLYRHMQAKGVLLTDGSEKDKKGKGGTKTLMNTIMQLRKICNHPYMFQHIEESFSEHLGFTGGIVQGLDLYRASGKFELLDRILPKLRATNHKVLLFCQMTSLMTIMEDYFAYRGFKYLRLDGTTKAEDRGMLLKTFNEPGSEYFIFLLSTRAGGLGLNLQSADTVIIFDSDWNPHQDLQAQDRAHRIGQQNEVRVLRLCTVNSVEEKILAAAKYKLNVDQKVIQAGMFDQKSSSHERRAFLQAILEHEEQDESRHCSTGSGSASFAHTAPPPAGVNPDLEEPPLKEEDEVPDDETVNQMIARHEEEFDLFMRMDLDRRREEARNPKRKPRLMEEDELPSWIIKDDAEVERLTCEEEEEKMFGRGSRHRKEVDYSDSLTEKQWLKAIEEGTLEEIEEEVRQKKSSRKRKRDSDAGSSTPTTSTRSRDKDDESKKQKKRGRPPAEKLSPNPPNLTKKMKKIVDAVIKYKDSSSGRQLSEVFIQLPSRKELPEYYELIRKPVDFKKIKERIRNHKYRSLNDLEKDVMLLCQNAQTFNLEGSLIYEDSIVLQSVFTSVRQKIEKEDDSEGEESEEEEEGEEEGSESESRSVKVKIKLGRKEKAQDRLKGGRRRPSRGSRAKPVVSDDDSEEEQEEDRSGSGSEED
T1 sequence (P51531 whole entry): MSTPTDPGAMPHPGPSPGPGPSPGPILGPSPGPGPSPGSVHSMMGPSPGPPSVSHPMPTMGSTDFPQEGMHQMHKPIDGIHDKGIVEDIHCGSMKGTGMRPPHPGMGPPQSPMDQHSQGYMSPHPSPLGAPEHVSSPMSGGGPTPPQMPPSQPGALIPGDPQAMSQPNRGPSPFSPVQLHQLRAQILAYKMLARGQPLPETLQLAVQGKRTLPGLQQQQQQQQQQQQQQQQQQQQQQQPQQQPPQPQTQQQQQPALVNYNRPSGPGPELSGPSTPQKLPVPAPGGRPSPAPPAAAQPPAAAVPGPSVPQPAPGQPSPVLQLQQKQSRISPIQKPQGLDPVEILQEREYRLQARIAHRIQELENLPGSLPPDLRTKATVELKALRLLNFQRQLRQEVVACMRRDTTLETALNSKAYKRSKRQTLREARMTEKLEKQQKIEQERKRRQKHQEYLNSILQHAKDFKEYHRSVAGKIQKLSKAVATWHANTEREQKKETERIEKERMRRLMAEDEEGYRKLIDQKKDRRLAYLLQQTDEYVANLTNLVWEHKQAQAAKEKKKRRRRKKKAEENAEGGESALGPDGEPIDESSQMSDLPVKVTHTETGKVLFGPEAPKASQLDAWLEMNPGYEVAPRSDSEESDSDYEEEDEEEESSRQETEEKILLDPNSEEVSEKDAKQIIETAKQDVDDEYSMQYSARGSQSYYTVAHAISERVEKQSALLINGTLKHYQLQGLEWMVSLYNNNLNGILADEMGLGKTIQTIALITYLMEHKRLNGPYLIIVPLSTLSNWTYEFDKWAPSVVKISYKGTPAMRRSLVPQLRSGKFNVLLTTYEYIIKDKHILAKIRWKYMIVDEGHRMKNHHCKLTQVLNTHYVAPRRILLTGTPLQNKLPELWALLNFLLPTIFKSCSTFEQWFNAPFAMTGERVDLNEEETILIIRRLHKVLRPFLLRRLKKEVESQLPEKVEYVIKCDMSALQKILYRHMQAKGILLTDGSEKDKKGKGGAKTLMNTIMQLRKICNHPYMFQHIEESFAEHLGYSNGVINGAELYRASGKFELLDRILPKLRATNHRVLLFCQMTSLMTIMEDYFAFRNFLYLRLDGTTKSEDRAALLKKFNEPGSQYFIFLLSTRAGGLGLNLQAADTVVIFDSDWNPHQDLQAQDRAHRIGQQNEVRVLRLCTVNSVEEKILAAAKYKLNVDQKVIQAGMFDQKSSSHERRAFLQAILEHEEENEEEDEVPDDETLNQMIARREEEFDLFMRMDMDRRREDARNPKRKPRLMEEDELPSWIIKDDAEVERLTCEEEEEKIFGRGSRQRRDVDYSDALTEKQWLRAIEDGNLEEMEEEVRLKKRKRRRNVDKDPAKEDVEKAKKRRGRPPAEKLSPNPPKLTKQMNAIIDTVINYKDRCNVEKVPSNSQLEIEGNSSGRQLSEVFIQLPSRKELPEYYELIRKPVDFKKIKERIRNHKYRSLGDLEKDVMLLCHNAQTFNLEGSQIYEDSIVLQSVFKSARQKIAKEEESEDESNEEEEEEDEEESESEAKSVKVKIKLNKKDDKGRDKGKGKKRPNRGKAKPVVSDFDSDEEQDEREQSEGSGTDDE

For the compound `O=C1CCC(N2C(=O)c3ccc(N4CCC(F)(CN5CCC(CN6CCN7c8cc(-c9ccccc9O)nnc8NC[C@H]7C6)CC5)CC4)cc3C2=O)C(=O)N1` (stereo partly drawn) [Example 48, 2-(2,6-dioxopiperidin-3-yl)-5-(4-fluoro-4-((4-(((S)-2-(2-hydroxyphenyl)-5,6,6a,7,9,10-hexahydro-8H-pyrazino[1′,2′:4,5]pyrazino[2,3-c]pyridazin-8-yl)methyl)piperidin-1-yl)methyl)piperidin-1-yl)isoindoline-1,3-dione], the DC50 on SMARCA2-HiBiT and on SMARCA4-HiBiT was < 10 nM each time. Also, the Dmax – broadly, the largest share of the target that was removed – on SMARCA2-HiBiT is > 85%; on SMARCA4-HiBiT, 75 to 85%.
As to `CC1(CN2C[C@@H]3[C@@H](CN4CCN5c6cc(-c7ccccc7O)nnc6NC[C@H]5C4)[C@@H]3C2)CCN(c2ccc3c(c2)C(=O)N(C2CCC(=O)NC2=O)C3=O)CC1` (stereo partly drawn) [Example 91, 2-(2,6-dioxopiperidin-3-yl)-5-(4-(((1R,5S,6r)-6-(((S)-2-(2-hydroxyphenyl)-5,6,6a,7,9,10-hexahydro-8H-pyrazino[1′,2′:4,5]pyrazino[2,3-c]pyridazin-8-yl)methyl)-3-azabicyclo[3.1.0]hexan-3-yl)methyl)-4-methylpiperidin-1-yl)isoindoline-1,3-dione], the DC50 (as a rule, the concentration giving 50% degradation) on SMARCA2-HiBiT was < 10 nM; at SMARCA4-HiBiT it was 10 to 100 nM. Further, the Dmax on SMARCA2-HiBiT was > 85%; on SMARCA4-HiBiT, 50 to 75%.
Consider `O=C1CCC(N2Cc3cc(OCCN4CCC(N5CCN6c7cc(-c8ccccc8O)nnc7NC[C@H]6C5)C4)ccc3C2=O)C(=O)N1` (stereo partly drawn) [Example 256, 3-(5-(2-(3-((S)-2-(2-hydroxyphenyl)-5,6,6a,7,9,10-hexahydro-8H-pyrazino[1′,2′:4,5]pyrazino[2,3-c]pyridazin-8-yl)pyrrolidin-1-yl)ethoxy)-1-oxoisoindolin-2-yl)piperidine-2,6-dione], for which, at SMARCA2-HiBiT, the DC50 was 10 to 100 nM and the Dmax fell in the range of 50 to 75%. At SMARCA4-HiBiT, the DC50 lay in the range of 10 to 100 nM and the Dmax was in the range of 50 to 75%.
Regarding `CC1CN(CC2CCN(C(=O)N3CCN4c5cc(-c6ccccc6O)nnc5NC[C@H]4C3)CC2)CCN1c1ccc2c(c1)C(=O)N(C1CCC(=O)NC1=O)C2=O` (stereo partly drawn) [Example 272, 2-(2,6-dioxopiperidin-3-yl)-5-(4-((1-((S)-2-(2-hydroxyphenyl)-6,6a,7,8,9,10-hexahydro-5H-pyrazino[1′,2′:4,5]pyrazino[2,3-c]pyridazine-8-carbonyl)piperidin-4-yl)methyl)-2-methylpiperazin-1-yl)isoindoline-1,3-dione], on SMARCA2-HiBiT, the DC50 is < 10 nM and the Dmax was > 85%. In addition, on SMARCA4-HiBiT, the DC50 is 10 to 100 nM and the Dmax is 75 to 85%.
For `O=C1CCC(N2C(=O)c3ccc(N4CC(CN5CCN(C(=O)N6CCN7c8cc(-c9ccccc9O)nnc8NC[C@H]7C6)CC5)C4)cc3C2=O)C(=O)N1` (stereo partly drawn) [Example 82, 2-(2,6-dioxopiperidin-3-yl)-5-(3-((4-((S)-2-(2-hydroxyphenyl)-6,6a,7,8,9,10-hexahydro-511-pyrazino[1′,2′:4,5]pyrazino[2,3-c]pyridazine-8-carbonyl)piperazin-1-yl)methyl)azetidin-1-yl) isoindoline-1,3-dione], in that order: < 10 nM, 75 to 85%, < 10 nM and 50 to 75%.
The like results for `O=C1CC[C@@H](N2Cc3cc(OCCN4CCC(N5CCN6c7cc(-c8ccccc8O)nnc7NC[C@H]6C5)CC4)ccc3C2=O)C(=O)N1` [Example 239, (R)-3-(5-(2-(4-((S)-2-(2-hydroxyphenyl)-5,6,6a,7,9,10-hexahydro-8H-pyrazino[1′,2′:4,5]pyrazino[2,3-c]pyridazin-8-yl)piperidin-1-yl)ethoxy)-1-oxoisoindolin-2-yl)piperidine-2,6-dione] were, in that order, < 10 nM, > 85%, < 10 nM and 50 to 75%.
The like results for `O=C1CCC(N2C(=O)c3ccc(N4CC(CN5C[C@@H]6[C@H](C5)[C@H]6CN5CCN6c7cc(-c8ccccc8O)nnc7NC[C@H]6C5)C4)cc3C2=O)C(=O)N1` (stereo partly drawn) [Example 109, 2-(2,6-dioxopiperidin-3-yl)-5-(3-(((1R,5S,6r)-6-(((S)-2-(2-hydroxyphenyl)-5,6,6a,7,9,10-hexahydro-8H-pyrazino[1′,2′:4,5]pyrazino[2,3-c]pyridazin-8-yl)methyl)-3-azabicyclo[3.1.0]hexan-3-yl)methyl)azetidin-1-yl)isoindoline-1,3-dione] were, in that order, < 10 nM, > 85%, < 10 nM and > 85%.
With `CC1CN(CC2CCN(c3ccc4c(c3)C(=O)N(C3CCC(=O)NC3=O)C4)CC2)CCC1C(=O)N1CCN2c3cc(-c4ccccc4O)nnc3NC[C@H]2C1` (stereo partly drawn) [Example 264, 3-(6-(4-((4-((S)-2-(2-hydroxyphenyl)-6,6a,7,8,9,10-hexahydro-5H-pyrazino[1′,2′:4,5]pyrazino[2,3-c]pyridazine-8-carbonyl)-3-methylpiperidin-1-yl)methyl)piperidin-1-yl)-1-oxoisoindolin-2-yl)piperidine-2,6-dione], the DC50 on SMARCA2-HiBiT and at SMARCA4-HiBiT was < 10 nM throughout. Also, the Dmax was > 85% at SMARCA2-HiBiT and 75 to 85% at SMARCA4-HiBiT.
In the case of `O=C1CCC(N2C(=O)c3ccc(N4CCCC(CN5CCO[C@@H](CN6CCN7c8cc(-c9ccccc9O)nnc8NC[C@H]7C6)C5)C4)cc3C2=O)C(=O)N1` (stereo partly drawn) [Example 79, 2-(2,6-dioxopiperidin-3-yl)-5-(3-(((S)-2-(((S)-2-(2-hydroxyphenyl)-5,6,6a,7,9,10-hexahydro-8H-pyrazino[1′,2′:4,5]pyrazino[2,3-c]pyridazin-8-yl)methyl)morpholino)methyl)piperidin-1-yl)isoindoline-1,3-dione], the DC50 at SMARCA2-HiBiT and at SMARCA4-HiBiT was < 10 nM throughout. The Dmax at SMARCA2-HiBiT and at SMARCA4-HiBiT was 75 to 85% each time.
In the case of `O=C1CCC(N2C(=O)c3ccc(N4CC(CN5CCC(C(=O)N6CCN7c8cc(-c9ccccc9O)nnc8NC[C@H]7C6)CC5)C4)cc3C2=O)C(=O)N1` (stereo partly drawn) [Example 86, 2-(2,6-dioxopiperidin-3-yl)-5-(3-((4-((S)-2-(2-hydroxyphenyl)-6,6a,7,8,9,10-hexahydro-5H-pyrazino[1′,2′:4,5]pyrazino[2,3-c]pyridazine-8-carbonyl)piperidin-1-yl)methyl)azetidin-1-yl)isoindoline-1,3-dione], at SMARCA2-HiBiT, the DC50 is < 10 nM and the Dmax was > 85%. For the same compound, on SMARCA4-HiBiT, the DC50 is 10 to 100 nM and the greatest degradation seen (Dmax) lay within 50 to 75%.
The like results for `CC1CN(c2ccc3c(c2)C(=O)N(C2CCC(=O)NC2=O)C3=O)CCC1CN1CCC(CN2CCN3c4cc(-c5ccccc5O)nnc4NC[C@H]3C2)CC1` (stereo partly drawn) [Example 170, 2-(2,6-dioxopiperidin-3-yl)-5-[4-[[4-[[(10S)-4-(2-hydroxyphenyl)-1,5,6,8,12-pentazatricyclo[8.4.0.02,7]tetradeca-2(7),3,5-trien-12-yl]methyl]piperidin-1-yl]methyl]-3-methylpiperidin-1-yl]isoindole-1,3-dione] were, in that order, < 10 nM, > 85%, < 10 nM and > 85%.
For `O=C1CCC(N2C(=O)c3ccc(N4CCC(CN5C[C@@H]6[C@H](C5)[C@@H]6CN5CCN6c7cc(-c8ccccc8O)nnc7NC[C@H]6C5)CC4)cc3C2=O)C(=O)N1` (stereo partly drawn) [Example 43, 2-(2,6-dioxopiperidin-3-yl)-5-(4-(((1R,5S,6s)-6-(((S)-2-(2-hydroxyphenyl)-5,6,6a,7,9,10-hexahydro-8H-pyrazino[1′,2′:4,5]pyrazino[2,3-c]pyridazin-8-yl)methyl)-3-azabicyclo[3.1.0]hexan-3-yl)methyl)piperidin-1-yl)isoindoline-1,3-dione], in that order: < 10 nM, > 85%, < 10 nM and 50 to 75%.
For `C[C@H]1CN(CC2CCN(c3ccc4c(c3)C(=O)N(C3CCC(=O)NC3=O)C4)CC2)CCN1C(=O)N1CCN2c3cc(-c4ccccc4O)nnc3NC[C@H]2C1` (stereo partly drawn) [Example 112, 3-(6-(4-(((S)-4-((S)-2-(2-hydroxyphenyl)-6,6a,7,8,9,10-hexahydro-5H-pyrazino[1′,2′:4,5]pyrazino[2,3-c]pyridazine-8-carbonyl)-3-methylpiperazin-1-yl)methyl)piperidin-1-yl)-1-oxoisoindolin-2-yl)piperidine-2,6-dione], in that order: < 10 nM, > 85%, < 10 nM and 75 to 85%.
With `O=C1CCC(N2C(=O)c3ccc(N4CCC(CN5CCC(CN6CCN7c8cc(-c9ccccc9O)nnc8NC[C@H]7C6)CC5)CC4)cc3C2=O)C(=O)N1` (stereo partly drawn) [Example 31, 2-(2,6-dioxopiperidin-3-yl)-5-(4-((4-(((S)-2-(2-hydroxyphenyl)-5,6,6a,7,9,10-hexahydro-8H-pyrazino[1′,2′:4,5]pyrazino[2,3-c]pyridazin-8-yl)methyl)piperidin-1-yl)methyl)piperidin-1-yl)isoindoline-1,3-dione], at SMARCA2-HiBiT, the DC50 is < 10 nM and the Dmax is > 85%. Besides, on SMARCA4-HiBiT, the 50% degradation concentration (DC50) is < 10 nM and the Dmax was > 85%.
